From PubChem BioAssay (NCI)
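Each compound was tested at five concentrations against cells in 96-well plates for 48 hours. TGI denotes the concentration required for complete inhibition of growth.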

Columns and labels:
Test in all cases: NCI-60 cell line screen, 48 h
NCI-H460 lung = system: NCI-H460 lung
786-0 renal = system: 786-0 renal
NCI-H522 lung = system: NCI-H522 lung
M14 melanoma = system: M14 melanoma
SNB-78 CNS = system: SNB-78 CNS
RXF 393 renal = system: RXF 393 renal
HCC-2998 colon = system: HCC-2998 colon
HCT-116 colon = system: HCT-116 colon
A498 renal = system: A498 renal
SNB-19 CNS = system: SNB-19 CNS
DMS 273 small cell lung = system: DMS 273 small cell lung
SW-620 colon = system: SW-620 colon
KM20L2 colon = system: KM20L2 colon
OVCAR-5 ovarian = system: OVCAR-5 ovarian
SK-MEL-28 melanoma = system: SK-MEL-28 melanoma
SR leukemia = system: SR leukemia
NCI-H23 lung = system: NCI-H23 lung
HCT-15 colon = system: HCT-15 colon
U251 CNS = system: U251 CNS
UACC-62 melanoma = system: UACC-62 melanoma
TK-10 renal = system: TK-10 renal
M19-MEL melanoma = system: M19-MEL melanoma
MALME-3M melanoma = system: MALME-3M melanoma
HL-60(TB) leukemia = system: HL-60(TB) leukemia
SK-OV-3 ovarian = system: SK-OV-3 ovarian
LXFL 529 NSCLC = system: LXFL 529 NSCLC
OVCAR-8 ovarian = system: OVCAR-8 ovarian
UACC-257 melanoma = system: UACC-257 melanoma
EKVX NSCLC = system: EKVX NSCLC
HOP-62 NSCLC = system: HOP-62 NSCLC
SN12C renal = system: SN12C renal
SK-MEL-5 melanoma = system: SK-MEL-5 melanoma
A549 NSCLC = system: A549 NSCLC
OVCAR-3 ovarian = system: OVCAR-3 ovarian
OVCAR-4 ovarian = system: OVCAR-4 ovarian
SNB-75 CNS = system: SNB-75 CNS
K-562 leukemia = system: K-562 leukemia
HT29 colon = system: HT29 colon
HOP-18 NSCLC = system: HOP-18 NSCLC
SF-268 CNS = system: SF-268 CNS
MOLT-4 leukemia = system: MOLT-4 leukemia
ACHN renal = system: ACHN renal
DLD-1 colon = system: DLD-1 colon
IGROV1 ovarian = system: IGROV1 ovarian
CCRF-CEM leukemia = system: CCRF-CEM leukemia
KM12 colon = system: KM12 colon
LOX IMVI melanoma = system: LOX IMVI melanoma
SF-539 CNS = system: SF-539 CNS
DMS 114 small cell lung = system: DMS 114 small cell lung
COLO 205 colon = system: COLO 205 colon
UO-31 renal = system: UO-31 renal
SK-MEL-2 melanoma = system: SK-MEL-2 melanoma

Measured: TGI

CCOC(=O)c1cnc2c(ccc3[nH]cccc32)c1=O
> 100 µM: NCI-H460 lung | 786-0 renal | NCI-H522 lung | M14 melanoma | SNB-78 CNS | RXF 393 renal | HCC-2998 colon | HCT-116 colon | A498 renal | SNB-19 CNS | DMS 273 small cell lung | SW-620 colon | KM20L2 colon | OVCAR-5 ovarian | SK-MEL-28 melanoma | SR leukemia | NCI-H23 lung | HCT-15 colon | U251 CNS | UACC-62 melanoma | TK-10 renal | M19-MEL melanoma | MALME-3M melanoma | HL-60(TB) leukemia | SK-OV-3 ovarian | LXFL 529 NSCLC | OVCAR-8 ovarian | UACC-257 melanoma | EKVX NSCLC | HOP-62 NSCLC | SN12C renal | SK-MEL-5 melanoma | A549 NSCLC | OVCAR-3 ovarian | OVCAR-4 ovarian | SNB-75 CNS | K-562 leukemia | HT29 colon | HOP-18 NSCLC | SF-268 CNS | MOLT-4 leukemia | ACHN renal | DLD-1 colon | IGROV1 ovarian | CCRF-CEM leukemia | KM12 colon | LOX IMVI melanoma | SF-539 CNS | DMS 114 small cell lung | COLO 205 colon | UO-31 renal | SK-MEL-2 melanoma
